System: 377384-186-R-J1-PDC complex spheroid viability
Assay: Anticancer human tumor 377384-186-R-J1-PDC patient-derived pancreatic carcinoma cell line growth inhibition [RAS]
Details: for IC50: curve of first compound; for viability, T/C: stronger effect = lower value
Text: RAS pathway inhibitors in Combinations in Complex Spheroids
A high-throughput screen of multi-cell type tumor spheroids was designed to identify active combinations of RAS pathway inhibitors and targeted small molecules. Complex spheroids include a stromal component modeled by human endothelial cells (HUVEC) and fibroblasts modeled by human mesenchymal stem cells (MSCs). The concentration ranges selected for each drug and investigational agent were based upon clinically achievable concentrations if the clinical Cmax of the agent was known.
Compounds. The drugs and investigational agents: abemaciclib (NSC768073), cobimetinib (NSC768068), divarasib (GDC6063, NSC841802), docetaxel (NSC628503), GDC-1971 (RLY-1971, NSC841576), gemcitabine (NSC613327), inavolisib (NSC800729), ipatasertib (NSC767898), KB-0742 (NSC834161), MRTX-1133 (NSC836407), osimertinib (NSC779217), RMC-4630 (NSC839698), RMC-6236 (NSC851965), RMC-6291 (NSC852671), Ro-3306 (NSC812927), sapanisertib (NSC764658), SN-38 (NSC673596), staurosporine (NSC755774), SY5609 (NSC837396), and tovorafenib (DAY101, NSC766906), were obtained from the National Cancer Institute (NCI) Developmental Therapeutics Program Chemical Repository. The FDA-approved anticancer drug set is available from the NCI Developmental Therapeutics Program. […] The stock solutions were prepared in dimethyl sulfoxide (DMSO, Sigma-Aldrich, St. Louis, MO, cat. D2650) at 800-fold the tested concentration and stored at -70 degrees C prior to their use. All drugs and investigational agents were tested over a range starting from a high concentration at or near the clinical Cmax and decreasing in half-log increments. If the clinical Cmax for an agent had not been determined, the highest concentration tested was 10 microM.
Cell Culture. All cells were maintained in an incubator at 37 degrees C and 5% CO2 with 95% humidity. The PDC lines were cultured according to standard operating procedures established by the NCI PDMR. All PDCs were thawed and cultured in Matrigel-coated flasks prepared with a working solution of 1X Ham's F-12 nutrient mix, without supplementation (Invitrogen, Waltham, MA, cat. 11765054), 100 U/mL penicillin-streptomycin (Invitrogen, cat. 15140122), and 2.5% Matrigel (Corning Inc., Corning, NY, cat. 354248) for the first three passages. The 362531-283-R-J2-PDC and 782815-120-R-J1-PDC lines were cultured in 6C/Colon 1B media, which includes advanced DMEM/F-12 (Thermo Fisher Scientific, cat. 12634028), 10 mM HEPES (Thermo Fisher Scientific, cat. 15630080), 1X GlutaMAX supplement (Thermo Fisher Scientific, cat. 35050061), 0.1 mg/mL primocin (InvivoGen, San Diego, CA, cat. ant-pm-2), 10% defined fetal bovine serum, heat inactivated (HyClone Laboratories Inc., Logan, UT, cat. SH30070.03HI), 50% L-WRN conditioned media (ATCC, cat. CRL-3276), 1.25 mM N-Acetyl-L-cysteine (Sigma-Aldrich, cat. A9165), 10 mM nicotinamide (Sigma-Aldrich, cat. N0636), 1X B-27 supplement (Thermo Fisher Scientific, cat. 17504044), 1X N-2 supplement (Thermo Fisher Scientific, cat. 17502048), 50 ng/mL human EGF (Thermo Fisher Scientific, cat. PHG0311), and 10 microM Y-27632 dihydrochloride (Tocris Bioscience, cat. 1254). The K12877-001-R-J1-PDC line was cultured in 6I media, which includes all 6C/Colon 1B media plus 10 ng/mL human FGF-10 (PeproTech, cat. 100-26), 1 ng/mL human FGF-2 (PeproTech, cat. 100-18B), 1 µM prostaglandin E2 (Tocris Bioscience, cat. 2296), […] hydrocortisone (Sigma-Aldrich, cat. H4001), and […] bovine insulin (Sigma-Aldrich, cat. I6634). The K86415-001-R-J1-PDC line was cultured in 6D media, which includes all 6C/Colon 1B media components minus the L-WRN conditioned media. The 485176-168-R4-J1-PDC was cultured in PANC media, which includes all 6C/Colon 1B media plus 100 ng/mL human FGF-10 (PeproTech, cat. 100-26), 500 nM SB-431542 (Selleckchem, cat. S1067), and 10 nM gastrin (Tocris Bioscience, cat. 3006). […]

[1] = second compound 0.0316 µM, first compound 0.0316 µM
[2] = second compound 0.0316 µM, first compound 0.1 µM
[3] = second compound 0.0316 µM, first compound 0.316 µM
[4] = second compound 0.0316 µM, first compound 1 µM
[5] = second compound 0.1 µM, first compound 0.0316 µM
[6] = second compound 0.1 µM, first compound 0.1 µM
[7] = second compound 0.1 µM, first compound 0.316 µM
[8] = second compound 0.1 µM, first compound 1 µM
[9] = second compound 0.316 µM, first compound 0.0316 µM
[10] = second compound 0.316 µM, first compound 0.1 µM
[11] = second compound 0.316 µM, first compound 0.316 µM
[12] = second compound 0.316 µM, first compound 1 µM
[13] = second compound 1 µM, first compound 0.0316 µM
[14] = second compound 1 µM, first compound 0.1 µM
[15] = second compound 1 µM, first compound 0.316 µM
[16] = second compound 1 µM, first compound 1 µM
[17] = second compound 3.16 µM, first compound 0.0316 µM
[18] = second compound 3.16 µM, first compound 0.1 µM
[19] = second compound 3.16 µM, first compound 0.316 µM
[20] = second compound 3.16 µM, first compound 1 µM
[21] = second compound 10 µM, first compound 0.0316 µM
[22] = second compound 10 µM, first compound 0.1 µM
[23] = second compound 10 µM, first compound 0.316 µM
[24] = second compound 10 µM, first compound 1 µM
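Note: spheroids exposed to compounds for seven days before readout.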

CCN1CCN(Cc2ccc(Nc3ncc(F)c(-c4cc(F)c5nc(C)n(C(C)C)c5c4)n3)nc2)CC1 + C#Cc1c(F)ccc2cc(O)cc(-c3ncc4c(N5CC6CCC(C5)N6)nc(OCC56CCCN5CC(F)C6)nc4c3F)c12
IC50 (second compound 0.0316 µM): < 3.16 nM | IC50 (second compound 0.1 µM): < 3.16 nM | IC50 (second compound 0.316 µM): < 3.16 nM | IC50 (second compound 1 µM): < 3.16 nM | IC50 (second compound 3.16 µM): < 3.16 nM | IC50 (second compound 10 µM): < 3.16 nM | viability, T/C (second compound 0.0316 µM, first compound 0.00316 µM): 21% | viability, T/C (second compound 0.0316 µM, first compound 0.01 µM): 18.9% | viability, T/C [1]: 11.8% | viability, T/C [2]: 11.6% | viability, T/C [3]: 5.8% | viability, T/C [4]: 4.39% | viability, T/C (second compound 0.1 µM, first compound 0.00316 µM): 9.77% | viability, T/C (second compound 0.1 µM, first compound 0.01 µM): 9.8% | viability, T/C [5]: 8.49% | viability, T/C [6]: 4.76% | viability, T/C [7]: 3.64% | viability, T/C [8]: 2.94% | viability, T/C (second compound 0.316 µM, first compound 0.00316 µM): 3.83% | viability, T/C (second compound 0.316 µM, first compound 0.01 µM): 3.75% | viability, T/C [9]: 3.3% | viability, T/C [10]: 2.21% | viability, T/C [11]: 2.67% | viability, T/C [12]: 2.17% | viability, T/C (second compound 1 µM, first compound 0.00316 µM): 2.87% | viability, T/C (second compound 1 µM, first compound 0.01 µM): 2.26% | viability, T/C [13]: 2.11% | viability, T/C [14]: 1.55% | viability, T/C [15]: 2.1% | viability, T/C [16]: 2.53% | viability, T/C (second compound 3.16 µM, first compound 0.00316 µM): 1.72% | viability, T/C (second compound 3.16 µM, first compound 0.01 µM): 1.78% | viability, T/C [17]: 1.26% | viability, T/C [18]: 1.41% | viability, T/C [19]: 1.98% | viability, T/C [20]: 1.76% | viability, T/C (second compound 10 µM, first compound 0.00316 µM): 1.13% | viability, T/C (second compound 10 µM, first compound 0.01 µM): 1.55% | viability, T/C [21]: 0.87% | viability, T/C [22]: 0.72% | viability, T/C [23]: 0.67% | viability, T/C [24]: 0.32%

C[C@@H](NC(=O)c1ncnc(N)c1Cl)c1ncc(C(=O)Nc2cc(C(F)(F)F)c(Cl)cn2)s1 + C#Cc1c(F)ccc2cc(O)cc(-c3ncc4c(N5CC6CCC(C5)N6)nc(OCC56CCCN5CC(F)C6)nc4c3F)c12
IC50 (second compound 0.0316 µM): < 31.6 nM | IC50 (second compound 0.1 µM): < 31.6 nM | IC50 (second compound 0.316 µM): < 31.6 nM | IC50 (second compound 1 µM): < 31.6 nM | IC50 (second compound 3.16 µM): < 31.6 nM | IC50 (second compound 10 µM): < 31.6 nM | viability, T/C [1]: 30.5% | viability, T/C [2]: 27.9% | viability, T/C [3]: 30% | viability, T/C [4]: 31.1% | viability, T/C (second compound 0.0316 µM, first compound 3.16 µM): 30.3% | viability, T/C (second compound 0.0316 µM, first compound 10 µM): 27.2% | viability, T/C [5]: 14.6% | viability, T/C [6]: 16.2% | viability, T/C [7]: 14.1% | viability, T/C [8]: 19.3% | viability, T/C (second compound 0.1 µM, first compound 3.16 µM): 16.2% | viability, T/C (second compound 0.1 µM, first compound 10 µM): 14.4% | viability, T/C [9]: 7.93% | viability, T/C [10]: 8.44% | viability, T/C [11]: 10.6% | viability, T/C [12]: 9.52% | viability, T/C (second compound 0.316 µM, first compound 3.16 µM): 11.1% | viability, T/C (second compound 0.316 µM, first compound 10 µM): 10.5% | viability, T/C [13]: 4.26% | viability, T/C [14]: 5.19% | viability, T/C [15]: 5.9% | viability, T/C [16]: 8.08% | viability, T/C (second compound 1 µM, first compound 3.16 µM): 8.4% | viability, T/C (second compound 1 µM, first compound 10 µM): 6.52% | viability, T/C [17]: 3.23% | viability, T/C [18]: 2.84% | viability, T/C [19]: 2.97% | viability, T/C [20]: 3.77% | viability, T/C (second compound 3.16 µM, first compound 3.16 µM): 4.25% | viability, T/C (second compound 3.16 µM, first compound 10 µM): 4.87% | viability, T/C [21]: 2.04% | viability, T/C [22]: 1.21% | viability, T/C [23]: 1.76% | viability, T/C [24]: 2.5% | viability, T/C (second compound 10 µM, first compound 3.16 µM): 3.8% | viability, T/C (second compound 10 µM, first compound 10 µM): 1.16%
